These compounds were tested on Phosphorylation of STAT6 in human A549 cells (assay: Phosphorylated STAT6 (pSTAT6) flow cytometry assay in human A549 cells). Details: read-out: STAT6 IL4 pSTAT6 assay in A549 cells: Average IC50.
Format: cell-based
Description: Example 3. Phosphorylated STAT6 (pSTAT6) Flow Cytometry Assay in Human A549 Cells
Phosphorylation of STAT6 in human A549 cells was quantitatively measured using flow cytometry technology.
With `CN(C)C(=O)c1cc2cc(C3=CCCN(C(=O)C(Cn4ccnn4)c4cccc(CO)c4)C3)ccc2o1` (centres unmarked) [Example I-832] the IC50 was 1 to 10 µM. For `CN(C)C(=O)c1cc2cc(C3=CCCN(C(=O)C(Cn4ccnn4)c4cccc(CO)c4)C3)ccc2o1` (centres unmarked) [Example I-833], the IC50 was 0.1 to 1 µM. `C[C@@H](C(=O)N1CCC=C(c2ccc3cc(C(=O)N(C)C)[nH]c3c2)C1)n1ccccc1=O` [Example I-834] showed an IC50 of 0.1 to 1 µM. With `CN(C)C(=O)c1cc2cc(C3=CCCN(C(=O)C(Cn4ccnn4)c4cccc(C#N)c4)C3)ccc2o1` (centres unmarked) [Example I-835] the IC50 was 0.1 to 1 µM. Work on `COc1ccccc1-c1cc(C2=CCCN(C(=O)C(C)C)C2)c(F)c2[nH]c(C(=O)N(C)C)cc12` [Example I-837] yielded an IC50 of 0.1 to 1 µM. Compound `COc1ccccc1-c1cc(C2=CCCN(C(=O)C3Cc4ccccc4CN3C=O)C2)cc2cc(C(=O)N(C)C)oc12` (centres unmarked) [Example I-838] has an IC50 of under 0.1 µM. Compound `COc1ccccc1-c1cc(C2=CCCN(C(=O)[C@H]3Cc4ccccc4CN3C=O)C2)cc2cc(C(=O)N(C)C)oc12` [Example I-839] has an IC50 of under 0.1 µM. Work on `CN(C)C(=O)c1cc2c(C3CCCCC3)cc([C@H]3CCCN(C(=O)CCn4cccn4)C3)c(F)c2[nH]1` [Example I-840] yielded an IC50 of under 0.1 µM. Work on `COc1ccccc1-c1cc(C2=CCCN(C(=O)CCn3ccnn3)C2)c(F)c2[nH]c(C(=O)N3CCN(C)CC3)cc12` [Example I-841] yielded an IC50 of under 0.1 µM. Compound `COc1ccccc1-c1cc(C2=CCCN(C(=O)CCn3ccnn3)C2)c(F)c2[nH]c(C(=O)N3CCCC3)cc12` [Example I-842] has an IC50 of under 0.1 µM. Work on `COc1ccccc1-c1cc(C2=CCCN(C(=O)CCn3ccnn3)C2)c(F)c2[nH]c(C(=O)N3CCN(CCCF)CC3)cc12` [Example I-843] yielded an IC50 of under 0.1 µM. `CN(C)CCN(C)C(=O)c1cc2cc(C3=CCCN(C(=O)CCn4ccnn4)C3)ccc2o1` [Example I-844] gave an IC50 of 0.1 to 1 µM. With `CN(C)C(=O)c1cc2cc(C3=CCCN(C(=O)CCn4ccnn4)C3)cc(-c3cccc4c3CN(C)C4=O)c2o1` [Example I-845] the IC50 was under 0.1 µM. Work on `COc1ccccc1-c1cc(C2=CCCN(C(=O)CCn3ccnn3)C2)c(F)c2[nH]c(C(=O)N3CCc4cccnc43)cc12` [Example I-848] yielded an IC50 of under 0.1 µM. With `COc1ccccc1-c1cc(C2=CCCN(C(=O)CCn3ccnn3)C2)c(F)c2[nH]c(C(=O)N3CCC(Nc4ncccn4)CC3)cc12` [Example I-849] the IC50 was under 0.1 µM. `COc1ccccc1-c1cc(C2=CCCN(C(=O)CCn3ccnn3)C2)c(F)c2[nH]c(C(=O)N3CCCN(c4ccc(F)cn4)CC3)cc12` [Example I-850] was tested, and the IC50 was under 0.1 µM. For `COc1ccccc1-c1cc(C2=CCCN(C(=O)CCn3ccnn3)C2)c(F)c2[nH]c(C(=O)N3CCc4n[nH]cc4C3)cc12` [Example I-851], the IC50 was under 0.1 µM. `COc1ccccc1-c1cc(C2=CCCN(C(=O)CCn3ccnn3)C2)c(F)c2[nH]c(C(=O)N3CCN(Cc4ccc(Br)cc4)CC3)cc12` [Example I-852] showed an IC50 of 0.1 to 1 µM. With `Cc1ccc(-c2cc(C3=CCCN(C(=O)CCn4ccnn4)C3)cc3cc(C(=O)N(C)C)oc23)c(O)c1` [Example I-853] the IC50 was under 0.1 µM. `COc1ccc(-c2cc(C3=CCCN(C(=O)CCn4ccnn4)C3)cc3cc(C(=O)N(C)C)oc23)c(C#N)c1` [Example I-854] was tested, and the IC50 was under 0.1 µM. For `CN(C)C(=O)c1cc2cc(C3=CCCN(C(=O)CCn4ccnn4)C3)cc(-c3cc(C(F)(F)F)nn3C)c2o1` [Example I-855], the IC50 was under 0.1 µM. `Cc1cc(C)c(-c2cc(C3=CCCN(C(=O)CCn4ccnn4)C3)cc3cc(C(=O)N(C)C)oc23)cc1C` [Example I-856] gave an IC50 of under 0.1 µM. With `COc1ccccc1-c1cc(C2=CCCN(C(=O)CCn3ccnn3)C2)c(F)c2[nH]c(C(=O)N3CCN(Cc4ccncc4)CC3)cc12` [Example I-858] the IC50 was under 0.1 µM. `COc1ccccc1-c1cc(C2=CCCN(C(=O)CCn3ccnn3)C2)c(F)c2[nH]c(C(=O)N3CCN(c4ccc5n[nH]cc5c4)CC3)cc12` [Example I-859] showed an IC50 of under 0.1 µM. `COc1ccccc1-c1cc(C2=CCCN(C(=O)CCn3ccnn3)C2)c(F)c2[nH]c(C(=O)N3CCN(c4ccc(C)cc4)CC3)cc12` [Example I-860] showed an IC50 of 0.1 to 1 µM. `COc1ccccc1-c1cc(C2=CCCN(C(=O)CCn3ccnn3)C2)c(F)c2[nH]c(C(=O)N3CCN(c4ccccn4)CC3)cc12` [Example I-862] showed an IC50 of under 0.1 µM. In the case of `COc1ccccc1-c1cc(C2=CCCN(C(=O)CCn3ccnn3)C2)c(F)c2[nH]c(C(=O)N3CCN(c4ncccn4)CC3)cc12` [Example I-863], the IC50 is reported as under 0.1 µM. With `COc1ccccc1-c1cc(C2=CCCN(C(=O)CCn3ccnn3)C2)c(F)c2[nH]c(C(=O)N3CCN(C(=O)N(C)C)CC3)cc12` [Example I-866] the IC50 was under 0.1 µM. `COc1ccccc1-c1cc(C2=CCCN(C(=O)CCn3ccnn3)C2)c(F)c2[nH]c(C(=O)N3CCN(c4ccc(O)cc4)CC3)cc12` [Example I-867] was tested, and the IC50 was under 0.1 µM. Work on `COc1ccccc1-c1cc(C2=CCCN(C(=O)CCn3ccnn3)C2)c(F)c2[nH]c(C(=O)N3CCN(Cc4ccc(Cl)cc4)CC3)cc12` [Example I-868] yielded an IC50 of 0.1 to 1 µM. For `CN(C)C(=O)c1cc2cc(C3=CCCN(C(=O)CCn4ccnn4)C3)cc(-c3ccc4c(c3)NC(=O)C4)c2o1` [Example I-869], the IC50 was under 0.1 µM. `CN(C)C(=O)c1cc2cc(C3=CCCN(C(=O)CCn4ccnn4)C3)cc(NCc3cccc4ncccc34)c2o1` [Example I-871] gave an IC50 of under 0.1 µM. For `CN(C)C(=O)c1cc2cc(C3=CCCN(C(=O)CCn4ccnn4)C3)cc(NCc3ccc(F)cc3)c2o1` [Example I-872], the IC50 was 0.1 to 1 µM. Compound `CN(C)C(=O)c1cc2cc(C3=CCCN(C(=O)CCn4ccnn4)C3)cc(NCC3CC(F)(F)C3)c2o1` [Example I-873] has an IC50 of under 0.1 µM. `CN(C)C(=O)c1cc2cc(C3=CCCN(C(=O)CCn4ccnn4)C3)cc(NC3CCCC3)c2o1` [Example I-874] gave an IC50 of 0.1 to 1 µM. `COc1ccccc1-c1cc(C2=CCCN(C(=O)CCn3ccnn3)C2)c(F)c2[nH]c(C(=O)N3CCN(c4cc(C#N)ccn4)CC3)cc12` [Example I-875] was tested, and the IC50 was under 0.1 µM. `CN(C)C(=O)c1cc2cc(C3=CCCN(C(=O)CCn4ccnn4)C3)cc(NCc3ccc(C(F)(F)F)cc3)c2o1` [Example I-877] gave an IC50 of 0.1 to 1 µM. `CN(C)C(=O)c1cc2cc(C3=CCCN(C(=O)CCn4ccnn4)C3)cc(NCc3ccccc3C3CC3)c2o1` [Example I-878] showed an IC50 of under 0.1 µM. Work on `COc1ncccc1-c1cc(C2=CCCN(C(C)=O)C2)c(F)c2[nH]c(C(=O)N(C)C)cc12` [Example I-879] yielded an IC50 of under 0.1 µM. For `COc1c(F)cccc1-c1cc(C2=CCCN(C(C)=O)C2)c(F)c2[nH]c(C(=O)N(C)C)cc12` [Example I-881], the IC50 was 0.1 to 1 µM. For `CC(=O)N1CCC=C(c2cc(-c3ccc4cnn(C)c4c3)c3cc(C(=O)N(C)C)[nH]c3c2F)C1` [Example I-882], the IC50 was 0.1 to 1 µM. Work on `CC(=O)N1CCC=C(c2cc(-c3ccc4n[nH]c(C)c4c3)c3cc(C(=O)N(C)C)[nH]c3c2F)C1` [Example I-883] yielded an IC50 of 0.1 to 1 µM. Compound `CC(=O)N1CCC=C(c2cc(-c3cc(C#N)ccc3C)c3cc(C(=O)N(C)C)[nH]c3c2F)C1` [Example I-884] has an IC50 of 0.1 to 1 µM. Compound `CC(=O)N1CCC=C(c2cc(-c3ccc(C)nc3)c3cc(C(=O)N(C)C)[nH]c3c2F)C1` [Example I-885] has an IC50 of 0.1 to 1 µM. For `CC(=O)N1CCC=C(c2cc(-c3ccc(C)cc3O)c3cc(C(=O)N(C)C)[nH]c3c2F)C1` [Example I-886], the IC50 was 0.1 to 1 µM. In the case of `CC(=O)N1CCC=C(c2cc(-c3ccc4cncnc4c3)c3cc(C(=O)N(C)C)[nH]c3c2F)C1` [Example I-887], the IC50 is reported as 0.1 to 1 µM. Work on `CC(=O)N1CCC=C(c2cc(-c3ccc(C(F)(F)F)cc3O)c3cc(C(=O)N(C)C)[nH]c3c2F)C1` [Example I-888] yielded an IC50 of 0.1 to 1 µM.

Reference: US20250214977A1, “STAT6 INHIBITORS AND USES THEREOF” (Kymera Therapeutics, Inc., priority 2024, published 2025)
